Experimental findings from PMC9921564, “Novel Indole-Containing Hybrids Derived from Millepachine: Synthesis, Biological Evaluation and Antitumor Mechanism Study” (Molecules, 2023) are described below.

This assay deals with caspase 3. The assay can be described thus: caspase 3 activity evaluation. The class given is cell-based, human. The settings on record: A549, 10, 20 and 50 nM. As for the experimental part:
To further elucidate the mechanism of cell death caused by the cytotoxicity of compound 14b, the Hoechst 33342 fluorochrome was used to observe the nucleus morphology, Annexin V-FITC double staining was performed to distinguish the apoptotic cells, and the caspase 3 colorimetric assay kit was used to detect the activity of caspase 3. […] At the early stage of apoptosis, different types of cells turn phosphatidylserine (PS) out toward the cell surface, that is, the outside of the cell membrane, which can be selectively marked with Annexin V. Additionally, in the late stage of apoptosis, the integrity of cell membrane is lost and can be stained with PI. […] Finally, considering the activation of caspase 3 is a central event in the process of apoptosis, the activity of caspase 3 was also evaluated.
Figure 4 Induction of apoptosis by compound 14b. […] (B) The percentages of cells in each apoptosis quantitated by flow cytometry through Annexin V-FITC double staining analysis. […] (C) The caspase 3 activity detected by the caspase 3 colorimetric assay kit after A549 cells were treated with compound 14b at concentrations of 10, 20 and 50 nM for 24 h. […]
samples were fixed in ice-cold 70% ethanol overnight and removed with ice-cold PBS for three times. […] After the incubation, the prepared cell samples were immediately analyzed. […]

SMILES strings stand for the structures.

Regarding `COc1ccc(C(=O)c2ccc3c(ccn3C)c2)c2c1C=CC(C)(C)O2` [compound 14b, (5-methoxy-2,2-dimethyl-2H-chromen-8-yl)(1-methyl-1H-indol-5-yl)methanone], the “activity of caspase 3” value is “significantly activated and increased in a dose- and time-dependent manner”.
